# Test results taken from the supplement of paper PMC10307832.
# Tests used:
# Experiment in all cases: relative viability (nuclei count vs DMSO), 5 days (fraction); higher = more cells survive
# 201T = test system: 201T
# Procedure, shortened: (§1)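 Each reported value is a median over duplicate plates. It expresses relative viability: treated-well nuclei count divided by vehicle-well nuclei count. Lung cancer cell lines in 1536-well plates were dosed by pin tool a day after seeding, alone with one drug or with a fixed anchor-drug dose plus five library-drug doses (not always all listed) in √10 steps, and nuclei were counted after 5 days.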
# ABC-1 = test system: ABC-1
# Procedure, shortened: as §1
# CAL-12T = test system: CAL-12T
# Procedure, shortened: as §1
# COR-L23 = test system: COR-L23
# Procedure, shortened: as §1
# HCC-44 = test system: HCC-44
# Procedure, shortened: as §1
# HOP-62 = test system: HOP-62
# Procedure, shortened: as §1
# LC-2-ad = test system: LC-2-ad
# Procedure, shortened: as §1
# LCLC-103H = test system: LCLC-103H
# Procedure, shortened: as §1
# NCI-H1355 = test system: NCI-H1355
# Procedure, shortened: as §1
# NCI-H1395 = test system: NCI-H1395
# Procedure, shortened: as §1
# NCI-H1651 = test system: NCI-H1651
# Procedure, shortened: as §1
# NCI-H1666 = test system: NCI-H1666
# Procedure, shortened: as §1
# NCI-H1993 = test system: NCI-H1993
# Procedure, shortened: as §1
# NCI-H2085 = test system: NCI-H2085
# Procedure, shortened: as §1
# NCI-H2170 = test system: NCI-H2170
# Procedure, shortened: as §1
# NCI-H2228 = test system: NCI-H2228
# Procedure, shortened: as §1
# NCI-H2347 = test system: NCI-H2347
# Procedure, shortened: as §1
# NCI-H23 = test system: NCI-H23
# Procedure, shortened: as §1
# NCI-H322M = test system: NCI-H322M
# Procedure, shortened: as §1
# NCI-H520 = test system: NCI-H520
# Procedure, shortened: as §1
# NCI-H647 = test system: NCI-H647
# Procedure, shortened: as §1
# NCI-H661 = test system: NCI-H661
# Procedure, shortened: as §1
# NCI-H838 = test system: NCI-H838
# Procedure, shortened: as §1
structure (smiles),measurement,setting,value
O=c1[nH]c2ccccc2n1C1CCN(CCCC(c2ccc(F)cc2)c2ccc(F)cc2)CC1 [Pimozide] + Cc1nc(NC(=O)N2CCC[C@H]2C(N)=O)sc1-c1ccnc(C(C)(C)C(F)(F)F)c1 [Alpelisib] (partner 2 µM),relative viability,201T; first compound 0.08 µM,0.999
same,relative viability,201T; first compound 0.253 µM,1.02
same,relative viability,201T; first compound 0.8 µM,1.05
same,relative viability,201T; first compound 2.53 µM,1.01
same,relative viability,201T; first compound 8 µM,0.921
same,relative viability,ABC-1; first compound 0.08 µM,0.915
same,relative viability,ABC-1; first compound 0.253 µM,1.03
same,relative viability,ABC-1; first compound 0.8 µM,0.834
same,relative viability,ABC-1; first compound 2.53 µM,0.842
same,relative viability,ABC-1; first compound 8 µM,0.675
same,relative viability,CAL-12T; first compound 0.08 µM,1.15
same,relative viability,CAL-12T; first compound 0.253 µM,1.07
same,relative viability,CAL-12T; first compound 0.8 µM,1.02
same,relative viability,CAL-12T; first compound 2.53 µM,1.32
same,relative viability,CAL-12T; first compound 8 µM,0.923
same,relative viability,COR-L23; first compound 0.08 µM,0.783
same,relative viability,COR-L23; first compound 0.253 µM,0.862
same,relative viability,COR-L23; first compound 0.8 µM,0.763
same,relative viability,COR-L23; first compound 2.53 µM,0.74
same,relative viability,COR-L23; first compound 8 µM,0.695
same,relative viability,HCC-44; first compound 0.08 µM,0.856
same,relative viability,HCC-44; first compound 0.253 µM,0.751
same,relative viability,HCC-44; first compound 0.8 µM,0.802
same,relative viability,HCC-44; first compound 2.53 µM,0.736
same,relative viability,HCC-44; first compound 8 µM,0.677
same,relative viability,HOP-62; first compound 0.08 µM,1.2
same,relative viability,HOP-62; first compound 0.253 µM,0.783
same,relative viability,HOP-62; first compound 2.53 µM,0.904
same,relative viability,HOP-62; first compound 8 µM,0.794
same,relative viability,LC-2-ad; first compound 0.08 µM,0.762
same,relative viability,LC-2-ad; first compound 0.253 µM,0.847
same,relative viability,LC-2-ad; first compound 0.8 µM,0.934
same,relative viability,LC-2-ad; first compound 2.53 µM,0.879
same,relative viability,LC-2-ad; first compound 8 µM,0.776
same,relative viability,LCLC-103H; first compound 0.08 µM,0.939
same,relative viability,LCLC-103H; first compound 0.253 µM,0.853
same,relative viability,LCLC-103H; first compound 0.8 µM,1.01
same,relative viability,LCLC-103H; first compound 2.53 µM,0.979
same,relative viability,LCLC-103H; first compound 8 µM,0.912
same,relative viability,NCI-H1355; first compound 0.08 µM,0.81
same,relative viability,NCI-H1355; first compound 0.253 µM,0.873
same,relative viability,NCI-H1355; first compound 0.8 µM,0.811
same,relative viability,NCI-H1355; first compound 2.53 µM,0.662
same,relative viability,NCI-H1355; first compound 8 µM,0.817
same,relative viability,NCI-H1395; first compound 0.08 µM,1.31
same,relative viability,NCI-H1395; first compound 0.253 µM,0.958
same,relative viability,NCI-H1395; first compound 0.8 µM,1.06
same,relative viability,NCI-H1395; first compound 2.53 µM,1.16
same,relative viability,NCI-H1395; first compound 8 µM,0.952
same,relative viability,NCI-H1651; first compound 0.08 µM,0.911
same,relative viability,NCI-H1651; first compound 0.253 µM,0.945
same,relative viability,NCI-H1651; first compound 0.8 µM,0.945
same,relative viability,NCI-H1651; first compound 2.53 µM,1.04
same,relative viability,NCI-H1651; first compound 8 µM,0.926
same,relative viability,NCI-H1666; first compound 0.08 µM,0.948
same,relative viability,NCI-H1666; first compound 0.253 µM,1.01
same,relative viability,NCI-H1666; first compound 0.8 µM,0.886
same,relative viability,NCI-H1666; first compound 2.53 µM,0.874
same,relative viability,NCI-H1666; first compound 8 µM,0.728
same,relative viability,NCI-H1993; first compound 0.08 µM,0.707
same,relative viability,NCI-H1993; first compound 0.253 µM,0.648
same,relative viability,NCI-H1993; first compound 0.8 µM,0.716
same,relative viability,NCI-H1993; first compound 2.53 µM,0.734
same,relative viability,NCI-H1993; first compound 8 µM,0.669
same,relative viability,NCI-H2085; first compound 0.08 µM,0.928
same,relative viability,NCI-H2085; first compound 0.253 µM,0.962
same,relative viability,NCI-H2085; first compound 0.8 µM,0.875
same,relative viability,NCI-H2085; first compound 2.53 µM,0.981
same,relative viability,NCI-H2085; first compound 8 µM,0.864
same,relative viability,NCI-H2170; first compound 0.08 µM,0.753
same,relative viability,NCI-H2170; first compound 0.253 µM,0.792
same,relative viability,NCI-H2170; first compound 0.8 µM,0.822
same,relative viability,NCI-H2170; first compound 2.53 µM,0.74
same,relative viability,NCI-H2170; first compound 8 µM,0.714
same,relative viability,NCI-H2228; first compound 0.08 µM,0.623
same,relative viability,NCI-H2228; first compound 0.253 µM,0.755
same,relative viability,NCI-H2228; first compound 0.8 µM,0.735
same,relative viability,NCI-H2228; first compound 2.53 µM,0.737
same,relative viability,NCI-H2228; first compound 8 µM,0.482
same,relative viability,NCI-H2347; first compound 0.08 µM,1.11
same,relative viability,NCI-H2347; first compound 0.253 µM,0.966
same,relative viability,NCI-H2347; first compound 0.8 µM,0.914
same,relative viability,NCI-H2347; first compound 2.53 µM,1.01
same,relative viability,NCI-H2347; first compound 8 µM,0.966
same,relative viability,NCI-H23; first compound 0.08 µM,0.577
same,relative viability,NCI-H23; first compound 0.253 µM,0.575
same,relative viability,NCI-H23; first compound 0.8 µM,0.718
same,relative viability,NCI-H23; first compound 2.53 µM,0.68
same,relative viability,NCI-H23; first compound 8 µM,0.745
same,relative viability,NCI-H322M; first compound 0.253 µM,0.835
same,relative viability,NCI-H322M; first compound 0.8 µM,0.819
same,relative viability,NCI-H322M; first compound 2.53 µM,0.695
same,relative viability,NCI-H322M; first compound 8 µM,0.716
same,relative viability,NCI-H520; first compound 0.08 µM,1.03
same,relative viability,NCI-H520; first compound 0.253 µM,0.88
same,relative viability,NCI-H520; first compound 0.8 µM,0.992
same,relative viability,NCI-H520; first compound 2.53 µM,0.947
same,relative viability,NCI-H520; first compound 8 µM,0.832
same,relative viability,NCI-H647; first compound 0.08 µM,1.11
same,relative viability,NCI-H647; first compound 0.253 µM,1.31
same,relative viability,NCI-H647; first compound 0.8 µM,1.11
same,relative viability,NCI-H647; first compound 2.53 µM,1
same,relative viability,NCI-H647; first compound 8 µM,0.554
same,relative viability,NCI-H661; first compound 0.08 µM,0.759
same,relative viability,NCI-H661; first compound 0.253 µM,0.594
same,relative viability,NCI-H661; first compound 0.8 µM,0.592
same,relative viability,NCI-H661; first compound 2.53 µM,0.494
same,relative viability,NCI-H661; first compound 8 µM,0.766
same,relative viability,NCI-H838; first compound 0.08 µM,0.95
same,relative viability,NCI-H838; first compound 0.253 µM,0.98
same,relative viability,NCI-H838; first compound 0.8 µM,0.967
same,relative viability,NCI-H838; first compound 2.53 µM,1.03
same,relative viability,NCI-H838; first compound 8 µM,1.04
